# Assay: in vitro
# Details: human, hela cells, % viability
row,SMILES,"viability at 28.5 h, 10 µM [%]"
1,COc1ccc(C(=O)NCc2ccc(S(N)(=O)=O)cc2)cc1[N+](=O)[O-] [CBK263629],105
2,CCN1C(=O)c2ccccc2C(=O)[C@@]2(C)CN(C)C[C@@H]12 [CBK283478],88.3
3,CCOC(=O)N1CCC(NC(=O)c2ccc3nc4ccccc4c(=O)n3c2)CC1 [CBK294447],81.1
4,CSCCCNC(=O)N1CCN(c2ccccc2)CC1 [CBK155170],96.5
5,CNC(=O)CN1C[C@H](NC(=O)c2cccc3c2NCCC3)[C@@H](C(C)C)C1 [CBK307073],80.6
6,CSc1sc(NC(=O)Nc2cccc(C(F)(F)F)c2)cc1C#N [CBK017114],93.9
7,O=C(NCn1nnc2ccccc21)c1ccccc1 [CBK056950],93.6
8,Nc1ncnc2[nH]nc(Nc3ccc(F)cc3)c12 [CBK122523],79
9,O=C1CC[C@@H](NCc2ccco2)[C@H](c2cc(F)cc(F)c2)N1 [CBK283127],102
10,COC(=O)c1c(NC(=O)CC2Nc3ccccc3NC2=O)sc2c1CCC2 (stereo not shown) [CBK269307A],93.7
11,COc1ccccc1-c1cc2nc(C)cc(Nc3ccccc3)n2n1 [CBK287806],97.3
12,COc1ccc(-c2cc(C(=O)NCc3cccnc3)c3cc(Br)ccc3n2)cc1 [CBK293958],86.1
13,O=C(N/N=C/C1C=Nc2ccccc21)c1cc([N+](=O)[O-])cc([N+](=O)[O-])c1 (stereo not shown) [CBK261485],89.8
14,CCn1cc(-c2nc3cc(S(=O)(=O)NC(C)C)ccc3n2C(C)C)cn1 [CBK307311],98.7
15,COC(=O)COc1ccccc1/C=C1\SC(c2ccc(C)cc2)=NC1=O [CBK067741],92.6
16,CC(=O)NCCNC(=O)c1ccc(C)nc1N1CCOCC1 [CBK076453],98.6
17,O=C(O)COCC(=O)N[C@H]1CCN2C(=O)c3ccc(Cl)cc3NC(=O)[C@H]12 [CBK289342],90
18,O=S(=O)(c1cnc(Cl)c(Br)c1)N1CCC2(CC1)OCCO2 [CBK044070],97.5
19,CCn1c(C)c(/C=C/c2nc3ccccc3c(=O)n2CCCO)c2ccccc21 [CBK268099],95.7
20,OC(CN1CCC(O)(c2ccc(F)cc2)CC1)c1ccc(F)cc1 (stereo not shown) [CBK282510],79
21,O=C(Nc1ccc2oc(-c3cccnc3)nc2c1)c1ccc(N2CCOCC2)c([N+](=O)[O-])c1 [CBK268664],100
22,CCN(CC)C(=O)C1CCCN(C(=O)NC(c2ccccc2)c2ccccc2)C1 (stereo not shown) [CBK156125],106

row,SMILES,"viability at 28.5 h, 10 µM [%]"
1,O=C(CSc1cc(Cl)ccc1Cl)Nc1cccc(Cl)c1 [CBK263712],113
2,Cc1ccc(C2=CCN(CC(=O)Nc3nccs3)CC2)o1 [CBK283557],93.7
3,CC(=O)Nc1ccc(S(N)(=O)=O)cc1Cl [CBK028784],109
4,CCN1CCN(C(=O)CN(Cc2ccc(Cl)cc2)S(C)(=O)=O)CC1 [CBK269263],82.8
5,O=C(Nc1ccc(Oc2ccccc2)cc1)c1cc([N+](=O)[O-])cc2cn[nH]c12 [CBK293985],82.5
6,NC(=O)c1ccc(-n2cc(-c3ccc(Cl)cc3)nn2)cc1 [CBK113046],93.4
7,CC(NC(=O)C1(Cn2ccnc2)CC1)c1ccccc1-n1cccn1 (stereo not shown) [CBK307006],94.3
8,CCOc1ccc(NC(=O)c2c[nH]c(=O)n(-c3ccc(F)cc3)c2=O)cc1 [CBK287553],107
9,COc1ccc(NS(=O)(=O)c2ccc(Cl)cc2Cl)c(C(=O)NCc2ccccc2)c1 [CBK113943],98.4
10,CCc1c(SCC(=O)O)nc2ccccc2c1C [CBK286928],95.8
11,COc1cc(Cl)cc(/C=N/Nc2nc(Nc3ccc(C)c(Cl)c3)nc(N3CCOCC3)n2)c1O [CBK262436],102
12,CC(C)(N)C(=O)N1CC(C(=O)N2CC3(CCN(S(C)(=O)=O)CC3)c3ccccc32)C(c2cc3ccccc3o2)C1 (stereo not shown) [CBK136734T],117
13,CCN(CC)C(=O)CN1CCCN(c2cc(OCc3cc(C)on3)ncn2)CC1 [CBK083337T],97
14,O=c1c2cccnc2nc(SCCO)n1CC1CCCO1 (stereo not shown) [CBK306113],80.3
15,O=C(NCc1ccccc1)N1CCC(n2cnc3cccnc32)CC1 [CBK282281],100
16,Cc1c(C(C)NCC2CCN(C)CC2)cnn1-c1ccc(C#N)cc1 (stereo not shown) [CBK304058],97.3
17,CN(C)CCNc1c(N)c(=O)oc2ccccc12 [CBK261472],89.7
18,Cc1ccc(C2CCCN2C(=O)c2ccc(=O)n(CC(=O)NC3CCCCC3)c2)cc1C (stereo not shown) [CBK285982],97.4
19,CC(C)c1cc(C(=O)N2CC(N3CCOCC3)C2)nc2ncnn12 [CBK306572],86.9
20,CCCS(=O)(=O)NC[C@H]1C[C@@H]2CCN1C[C@@H]2c1cc(-c2ccccc2)nn1C [CBK289095],93.8
21,Cc1ccc2oc(C(=O)N3CCC(Oc4cccnc4)CC3)cc2c1 [CBK281498],106
22,O=C(CNC(=O)c1cccc(F)c1)N/N=C1/C(=O)N(Cc2ccc3c(c2)OCO3)c2ccccc21 [CBK263519],102

row,SMILES,"viability at 28.5 h, 10 µM [%]"
1,N#Cc1ccc(CN2CCN(S(=O)(=O)c3ccc(-n4cnc(Cl)c4Cl)cc3)CC2)cc1 [CBK062972],104
2,CC(C)c1cccc(C(C)C)c1OCC(O)CN1CCCCC1 (stereo not shown) [CBK003079T],94.6
3,CC1=C[C@@H](CC#N)[C@H](C(C)C)C[C@H]1CC(=O)Nc1ccccn1 [CBK289215],87
4,O=C(Nc1ccccc1C(=O)NCc1ccccc1)c1cccc(F)c1 [CBK269351],88.9
5,CC1c2ccsc2CCN1C(=O)COc1ccc(Br)cc1 (stereo not shown) [CBK304999],98
6,COc1ccc([C@@H]2CCN(C(=O)Cc3ccc(F)cc3)C[C@H]2O)cc1 [CBK283709],88.8
7,Cc1cccc(C2(O)CCN(CC(O)c3ccccc3)CC2)c1 (stereo not shown) [CBK286325],106
8,O=C(O)C1CCN(C(=O)CSc2nnc(-c3ccccc3F)n2C2CCCC2)CC1 [CBK296971],115
9,Cc1cc(C)n(CC(=O)NCC2CCCO2)c(=O)c1C#N (stereo not shown) [CBK269926],85.4
10,Cc1ccc(C2C(C(=O)c3ccccc3)=C(O)C(=O)N2CCC(=O)O)cc1 (stereo not shown) [CBK286642],81.1
11,O=C(CSc1nnc2scc(-c3ccccc3)n12)Nc1nsc(-c2ccccc2)n1 [CBK265672],103
12,O=C(Nc1ccc(N2CCNCC2)c2ccccc12)c1ccccc1 [CBK028412T],92.8
13,Cc1cc(/C=C/C2=CCN(C)CC2)c(C)n1C1CC1 [CBK283858],85.9
14,O=C(Cn1cnc2c(cnn2-c2ccccc2)c1=O)N1CCc2ccccc21 [CBK287529],91.7
15,C=C(C)Cn1c(SCC(=O)O)nnc1-c1ccc([N+](=O)[O-])cc1 [CBK263159],89.8
16,Cc1[nH]c2c(C)cccc2c1CC(=O)N(C)CCN(C)C [CBK282724],82.6
17,CSCCC(NC(=O)c1ccccc1NC(=O)c1ccc(C)cc1)C(=O)O (stereo not shown) [CBK296067],94.1
18,COc1ccccc1Nc1nc(N)nc(CSc2ncccn2)n1 [CBK266734],104
19,O=C(O)C(Cc1ccc(O)cc1)c1ccccc1 (stereo not shown) [CBK012287],84.7
20,CN1CCN(C(=O)CNS(=O)(=O)c2ccc(Br)cc2)CC1 [CBK034478],101
21,O=C(c1ccc2c(c1)N(Cc1ccccc1Cl)C(=O)CO2)c1cccs1 [CBK286411],94.2
22,CN1CCN(Cc2n[nH]c(=S)n2-c2cccc(C#N)c2)CC1 [CBK015465],112

row,SMILES,"viability at 28.5 h, 10 µM [%]"
1,COc1ccc2c(c1)c(C(=O)N1CC(C)(C)C(C)(O)C1)c(C)n2C (stereo not shown) [CBK306896],77.2
2,COC(=O)CC1C(=O)NCCN1C(=O)COc1ccc(Cl)cc1 (stereo not shown) [CBK264938],80
3,COc1ccc(OC)c(NC(=O)CSc2nnc(-c3ccc(F)cc3)n2C)c1 [CBK266073],92
4,CCc1[nH]nc2c1C(C1C=CCCC1)C(C#N)=C(N)O2 (stereo not shown) [CBK270236],92.9
5,CC(C)(C)C1CCc2c(sc(NC(=O)CCC(=O)O)c2C(=O)Nc2ccccc2C(F)(F)F)C1 (stereo not shown) [CBK264143],100
6,C[C@@H]1CN(Cc2ccco2)[C@H](C)CN1CC(=O)Nc1nc2c(s1)CCCC2 [CBK286530],100
7,CN1CCN(Cc2c(O)ccc3cc(-c4ccc(F)cc4)c(=O)oc23)CC1 [CBK267976],111
8,Cc1ccsc1C(=O)N1CCC(c2nn(C)c3ncccc23)CC1 [CBK285102],96.6
9,O=C(NCC1(O)CCSCC1)c1ccc2ccccc2n1 [CBK305211],85
10,c1cc(Sc2nccnc2N2CCCC2)ccn1 [CBK093807],92.3
11,Cn1cc(N2CCCC(NC(=O)Nc3cccc(C#N)c3)C2)cn1 (stereo not shown) [CBK305179],91.3
12,Cc1c(C(=O)N(C(C)C)C2CC2)nnn1-c1ccc2ncccc2c1 [CBK305518],92.5
13,O=C(O)C1C(c2ccccc2)C(C(=O)Oc2cccc3ccccc23)C1c1ccccc1 (stereo not shown) [CBK263869],110
14,CCN(CC)CCOc1cc(=O)oc2ccccc12 [CBK022747C],105
15,Cc1nc(S(=O)(=O)CCn2cccn2)n(CC2CCCO2)c1C (stereo not shown) [CBK305141],96.6
16,N/C(CS(=O)(=O)Cc1ccc(F)cc1)=N/O [CBK010956],89.2
17,CC(C)NC(=O)N[C@H]1CCN2C(=O)c3cc(-c4ccc(F)cc4F)ccc3NC(=O)[C@H]12 [CBK289346],86.8
18,O=c1oc(-c2ccco2)nn1Cc1ccc([N+](=O)[O-])cc1 [CBK295593],94.8
19,CC1CCc2c(sc(NC(=O)CCN3C(=O)c4ccccc4C3=O)c2C(N)=O)C1 (stereo not shown) [CBK263667],94.4
20,Nc1cc(O)n(Cc2ccco2)c(=S)n1 [CBK006010],99.9
21,Cc1ccc(-n2cccn2)cc1S(=O)(=O)N1CCNCC1C (stereo not shown) [CBK307344],85.1
22,Nc1nnc(SCc2cccc3ccccc23)[nH]1 [CBK264830],103
